Measured values as given in ChEMBL document CHEMBL4725331, “An investigative study of antitumor properties of a novel thiazolo[4,5-d]pyrimidine small molecule revealing superior antitumor activity with CDK1 selectivity and potent pro-apoptotic properties” (Bioorg Med Chem, 2020).
pIC50: −log10 of the molar value.

What was measured:
T47D = test: Antiproliferative activity against human T47D cells assessed as inhibition of cell growth measured after 48 hrs by SRB assay; type: functional
K562 = test: Antiproliferative activity against human K562 cells assessed as inhibition of cell growth at 10 uM measured after 48 hrs by SRB assay relative to control; type: functional
HCT-116 [1] = test: Antiproliferative activity against human HCT-116 cells assessed as inhibition of cell growth measured after 48 hrs by SRB assay; type: functional
HCT-116 [2] = test: Antiproliferative activity against human HCT-116 cells assessed as inhibition of cell growth at 10 uM measured after 48 hrs by SRB assay relative to control; type: functional
WI-38 [3] = test: Induction of apoptosis in human WI-38 cells assessed as late apoptotic cells at IC50 incubated for 48 hrs by annexin-V FITC and propidium iodide staining based flow cytometry analysis (reference value: 0.29 %); type: cell-based; conditions: wi-38, 48 h
OVCAR-8 = test: Antiproliferative activity against human OVCAR-8 cells assessed as inhibition of cell growth measured after 48 hrs by SRB assay; type: functional
NCI-H460 = test: Antiproliferative activity against human NCI-H460 cells assessed as inhibition of cell growth at 10 uM measured after 48 hrs by SRB assay relative to control; type: functional
HCT-116 [4] = test: Induction of apoptosis in human HCT-116 cells assessed as early apoptotic cells at IC50 incubated for 48 hrs by annexin-V FITC and propidium iodide staining based flow cytometry analysis (reference value: 1.67 %); type: functional
SNB-75 = test: Antiproliferative activity against human SNB-75 cells assessed as inhibition of cell growth measured after 48 hrs by SRB assay; type: functional
EKVX = test: Antiproliferative activity against human EKVX cells assessed as inhibition of cell growth at 10 uM measured after 48 hrs by SRB assay relative to control; type: functional
786-0 = test: Antiproliferative activity against human 786-0 cells assessed as inhibition of cell growth measured after 48 hrs by SRB assay; type: functional
DU-145 [5] = test: Antiproliferative activity against human DU-145 cells assessed as inhibition of cell growth measured after 48 hrs by SRB assay; type: functional
RXF 393 = test: Antiproliferative activity against human RXF 393 cells assessed as inhibition of cell growth measured after 48 hrs by SRB assay; type: functional
MDA-MB-435 = test: Antiproliferative activity against human MDA-MB-435 cells assessed as inhibition of cell growth measured after 48 hrs by SRB assay; type: functional
HCC 2998 = test: Antiproliferative activity against human HCC 2998 cells assessed as inhibition of cell growth measured after 48 hrs by SRB assay; type: functional
SF-295 = test: Antiproliferative activity against human SF-295 cells assessed as inhibition of cell growth measured after 48 hrs by SRB assay; type: functional
MCF7 [6] = test: Antiproliferative activity against human MCF7 cells assessed as inhibition of cell growth measured after 48 hrs by SRB assay; type: functional
KM12 = test: Antiproliferative activity against human KM12 cells assessed as inhibition of cell growth at 10 uM measured after 48 hrs by SRB assay relative to control; type: functional
M14 = test: Antiproliferative activity against human M14 cells assessed as inhibition of cell growth measured after 48 hrs by SRB assay; type: functional
A498 = test: Antiproliferative activity against human A498 cells assessed as inhibition of cell growth measured after 48 hrs by SRB assay; type: functional
[7] = biological target: Cyclin-dependent kinase 1/cyclin B1 (Homo sapiens, UniProt P06493); test: Inhibition of CDK1/cyclinB (unknown origin); type: protein-complex assay
Chain of Cyclin-dependent kinase 1/cyclin B1 (P06493 whole entry): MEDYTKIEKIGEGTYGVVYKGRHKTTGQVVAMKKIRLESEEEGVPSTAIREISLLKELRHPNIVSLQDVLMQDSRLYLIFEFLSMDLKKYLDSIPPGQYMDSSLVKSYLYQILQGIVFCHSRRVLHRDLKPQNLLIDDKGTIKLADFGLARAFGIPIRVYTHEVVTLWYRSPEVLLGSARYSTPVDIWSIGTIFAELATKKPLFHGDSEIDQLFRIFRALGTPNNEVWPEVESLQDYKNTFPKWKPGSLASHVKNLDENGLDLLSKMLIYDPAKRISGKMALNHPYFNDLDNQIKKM
Chain of Cyclin-dependent kinase 1/cyclin B1 (P14635 whole entry, further chain): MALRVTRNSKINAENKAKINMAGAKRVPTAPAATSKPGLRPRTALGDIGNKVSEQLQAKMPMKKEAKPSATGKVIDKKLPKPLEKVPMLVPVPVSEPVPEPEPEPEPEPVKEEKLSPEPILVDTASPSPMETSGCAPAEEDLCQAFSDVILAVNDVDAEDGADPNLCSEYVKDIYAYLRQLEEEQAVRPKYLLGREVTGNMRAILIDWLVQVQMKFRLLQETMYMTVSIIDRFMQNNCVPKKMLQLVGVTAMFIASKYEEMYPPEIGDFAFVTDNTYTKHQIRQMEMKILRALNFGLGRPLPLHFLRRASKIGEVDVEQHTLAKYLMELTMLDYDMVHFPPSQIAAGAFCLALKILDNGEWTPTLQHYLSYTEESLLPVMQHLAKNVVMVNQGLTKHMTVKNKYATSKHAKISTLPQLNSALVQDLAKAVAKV

HCT-116 [8] = test: Induction of apoptosis in human HCT116 cells assessed as increase in p53 gene expression by RT-PCR analysis relative to untreated control; type: functional
WI-38 [9] = test: Cell cycle arrest in human WI-38 cells assessed as accumulation in sub-G phase at IC50 concentration incubated for 48 hrs by propidium iodide staining based flow cytometry analysis (reference value: 1.35 %); conditions: wi-38, 48 h
MCF7 [10] = test: Antiproliferative activity against human MCF7 cells assessed as inhibition of cell growth at 10 uM measured after 48 hrs by SRB assay relative to control; type: functional
COLO 205 = test: Antiproliferative activity against human COLO 205 cells assessed as inhibition of cell growth at 10 uM measured after 48 hrs by SRB assay relative to control; type: functional
U-251 = test: Antiproliferative activity against human U-251 cells assessed as inhibition of cell growth measured after 48 hrs by SRB assay; type: functional
DU-145 [11] = test: Antiproliferative activity against human DU-145 cells assessed as inhibition of cell growth at 10 uM measured after 48 hrs by SRB assay relative to control; type: functional
HOP-62 = test: Antiproliferative activity against human HOP-62 cells assessed as inhibition of cell growth measured after 48 hrs by SRB assay; type: functional
HCT-116 [12] = test: Induction of apoptosis in human HCT-116 cells assessed as late apoptotic cells at IC50 incubated for 48 hrs by annexin-V FITC and propidium iodide staining based flow cytometry analysis (reference value: 0.28 %); type: functional
HCT-116 [13] = test: Induction of apoptosis in human HCT116 cells assessed as up regulation of caspase-3 expression by RT-PCR analysis relative to untreated control; type: functional
HCT-116 [14] = test: Induction of apoptosis in human HCT116 cells assessed as decrease in Bcl2 gene expression by RT-PCR analysis relative to untreated control; type: functional
HCT-116 [15] = test: Cell cycle arrest in human HCT-116 cells assessed as accumulation in sub-G phase at IC50 concentration incubated for 48 hrs by propidium iodide staining based flow cytometry analysis (reference value: 2.4 %); type: functional
MDA-MB-468 = test: Antiproliferative activity against human MDA-MB-468 cells assessed as inhibition of cell growth measured after 48 hrs by SRB assay; type: functional
TK-10 = test: Antiproliferative activity against human TK-10 cells assessed as inhibition of cell growth at 10 uM measured after 48 hrs by SRB assay relative to control; type: functional
[16] = read-out: LC50 (the source's name)

With `COc1ccc(-n2c(=S)sc3c(Cl)nc(C)nc32)c(OC)c1` the GI50 (T47D) was 6.46 µM, the TGI (T47D) was 21.9 µM and the CC50 (T47D; [16]) was 56.2 µM. For the same compound, the inhibition at 10 µM (K562) was > 50%, the GI50 (HCT-116 [1]) was 1.82 µM and the TGI (HCT-116 [1]) was 3.72 µM. The CC50 (HCT-116 [1]; [16]) was 7.59 µM, the inhibition at 10 µM (HCT-116 [2]) was > 50% and the Activity (WI-38 [3]) was 2.99%. It also gave a GI50 (OVCAR-8) of 2.69 µM, a TGI (OVCAR-8) of 7.41 µM and a CC50 (OVCAR-8; [16]) of 40.7 µM. The inhibition at 10 µM (NCI-H460) was > 50%, the Activity (HCT-116 [4]) was 5.38% and the GI50 (SNB-75) was 1.95 µM. The TGI (SNB-75) was 4.27 µM, the CC50 (SNB-75; [16]) was 9.33 µM and the inhibition at 10 µM (EKVX) was > 50%. For the same compound, the GI50 (786-0) was 4.47 µM, the TGI (786-0) was 20.4 µM and the CC50 (786-0; [16]) was 81.3 µM. For the same compound, the GI50 (DU-145 [5]) was 1.86 µM, the TGI (DU-145 [5]) was 3.24 µM and the CC50 (DU-145 [5]; [16]) was 5.75 µM. It also gave a GI50 (RXF 393) of 2 µM, a TGI (RXF 393) of 4.07 µM and a CC50 (RXF 393; [16]) of 8.32 µM. For the same compound, the GI50 (MDA-MB-435) was 2.14 µM, the TGI (MDA-MB-435) was 3.89 µM and the CC50 (MDA-MB-435; [16]) was 7.24 µM. It also gave a GI50 (HCC 2998) of 16.2 µM, a TGI (HCC 2998) of 30.9 µM and a CC50 (HCC 2998; [16]) of 58.9 µM. For the same compound, the GI50 (SF-295) was 7.08 µM, the TGI (SF-295) was 19.9 µM and the CC50 (SF-295; [16]) was 46.8 µM. The GI50 (MCF7 [6]) was 3.63 µM, the TGI (MCF7 [6]) was 15.5 µM and the CC50 (MCF7 [6]; [16]) was 87.1 µM. The inhibition at 10 µM (KM12) was > 50%, the GI50 (M14) was 1.86 µM and the TGI (M14) was 4.07 µM. For the same compound, the CC50 (M14; [16]) was 8.91 µM, the GI50 (A498) was 11.5 µM and the TGI (A498) was 24 µM. For the same compound, the CC50 (A498; [16]) was 49 µM, the pIC50 [7] was 7.01 and the “fold change (FC)” value (HCT-116 [8]) was 13.1. The Activity (WI-38 [9]) was 6.1%, the inhibition at 10 µM (MCF7 [10]) was > 50% and the inhibition at 10 µM (COLO 205) was > 50%. The GI50 (U-251) was 1.91 µM, the TGI (U-251) was 3.63 µM and the CC50 (U-251; [16]) was 6.92 µM. The inhibition at 10 µM (DU-145 [11]) was > 50%, the GI50 (HOP-62) was 2.57 µM and the TGI (HOP-62) was 7.76 µM. For the same compound, the CC50 (HOP-62; [16]) was 26.9 µM, the Activity (HCT-116 [12]) was 12.78% and the “fold change (FC)” value (HCT-116 [13]) was 11.2. The “fold change (FC)” value (HCT-116 [14]) was 3.64, the Activity (HCT-116 [15]) was 17.67% and the GI50 (MDA-MB-468) was 2 µM. The TGI (MDA-MB-468) was 6.61 µM, the CC50 (MDA-MB-468; [16]) was 93.3 µM and the inhibition at 10 µM (TK-10) was > 50%.
